These results are taken from patent US20100317656A1, “IMIDAZO[1,2-a]PYRIDINE-2-CARBOXAMIDE DERIVATIVES, PREPARATION THEREOF AND APPLICATION THEREOF IN THERAPEUTICS” (SANOFI-AVENTIS, priority 2008, published 2010).

In this assay the target is T1, mouse Nurr1 receptor (Mus musculus, UniProt Q06219).
T1 construct: a cell line (N2A) endogenously expressing the mouse Nurr1 receptor; host or cells: Neuro-2A (N2A) mouse neuroblastoma cells stably transfected with 8NBRE-luciferase
T1 sequence (Q06219 whole entry): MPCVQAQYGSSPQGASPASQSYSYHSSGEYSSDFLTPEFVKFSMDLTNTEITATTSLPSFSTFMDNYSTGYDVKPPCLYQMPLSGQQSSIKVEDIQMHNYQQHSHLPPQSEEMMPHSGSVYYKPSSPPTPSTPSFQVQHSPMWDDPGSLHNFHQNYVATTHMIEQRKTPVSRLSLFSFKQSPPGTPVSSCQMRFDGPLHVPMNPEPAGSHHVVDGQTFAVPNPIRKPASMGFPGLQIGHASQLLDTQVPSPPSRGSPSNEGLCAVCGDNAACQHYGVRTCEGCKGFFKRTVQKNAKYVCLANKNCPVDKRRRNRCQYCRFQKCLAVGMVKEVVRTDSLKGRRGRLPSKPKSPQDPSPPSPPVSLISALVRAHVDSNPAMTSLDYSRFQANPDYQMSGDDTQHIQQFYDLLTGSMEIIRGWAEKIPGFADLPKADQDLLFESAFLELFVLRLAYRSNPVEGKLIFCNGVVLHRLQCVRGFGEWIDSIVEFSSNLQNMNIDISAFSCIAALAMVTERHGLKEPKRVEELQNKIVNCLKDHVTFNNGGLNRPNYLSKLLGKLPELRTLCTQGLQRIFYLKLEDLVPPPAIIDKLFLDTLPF
In words: Evaluation of the in vitro activity on N2A cells (NBRE-luciferase reporter). Type of assay: cell-based. The note with it: N2A (Neuro-2A) cells endogenously expressing Nurr1, stably transfected with 8NBRE-luciferase; products incubated 24 hours; luminescence. As for the experimental part: The activity of the compounds according to the invention was evaluated on a cell line (N2A) endogenously expressing the mouse Nurr1 receptor and stably transfected with the NOT binding response element (NBRE) coupled to the luciferase reporter gene. The EC50 values are between 0.01 and 1000 nM. The assays were carried out according to the procedure described below.
The Neuro-2A cell line comes from a standard commercial source (ATCC). The Neuro-2A clone was obtained, from a spontaneous tumour originating from an A albino mouse strain, by R. J Klebe et al. This Neuro-2A line is subsequently stably transfected with 8NBRE-luciferase. The N2A-8NBRE cells are cultured until confluence in 75 cm^2 culture flasks containing DMEM supplemented with 10% of foetal calf serum, 4.5 g/l of glucose and 0.4 mg/ml of geneticin. After a week of culture, the cells are recovered with 0.25% trypsin for 30 seconds and then resuspended in DMEM without phenol red, containing 4.5 g/l of glucose and 10% of Hyclone delipidized serum, and deposited into transparent-bottom 96-well white plates. The cells are deposited at a rate of 60 000 per well in 75 μl for 24 hours before the addition of the products. The products are applied in 25 μl and incubated for a further 24 hours. On the day of the measurement, an equivalent volume (100 μl) of Steadylite is added to each well and then left for a period of 30 minutes in order to obtain complete cell lysis and maximum signal production. The plates are subsequently measured in a luminescence counter for microplates after having been sealed with an adhesive film. The products are prepared in the form of a stock solution at 10^−2M and then diluted in 100% of DMSO. Each product concentration is prediluted in culture medium before incubation with the cells, thus containing 0.625% final concentration of DMSO.
With `O=C(c1cn2cc(-c3cccc(CO)c3)ccc2n1)N1CC=CC1` [Compound 7, {3-[2-(2,5-Dihydro-1H-pyrrol-1-ylcarbonyl)imidazo[1,2-α]pyridin-6-yl]phenyl}methanol], the EC50 (commonly the concentration at which the effect is half-maximal) is 5 nM. For `O=C(c1cn2cc(-c3cccc(CO)c3)ccc2n1)N1CC=CCC1` [Compound 8, {3-[2-[(1,2,5,6-Tetrahydropyridin-1-yl)carbonyl]imidazo[1,2-α]pyridin-6-yl]phenyl}methanol] the value was 0.8 nM; for `CN(C)c1ccc2nc(C(=O)N3CCc4ccc(F)cc43)cn2c1` [Compound 17, 2-[(6-Fluoro-2,3-dihydro-1H-indol-1-yl)carbonyl]-N,N-dimethylimidazo[1,2-α]pyridin-6-amine], 6.7 nM; for `O=C(c1cn2cc(-c3ncco3)ccc2n1)N1CC=CCC1` [Compound 30, 6-(Oxazol-2-yl)-2-[(1,2,5,6-tetrahydropyridin-1-yl)carbonyl]imidazo[1,2-α]pyridine], 56 nM.

`O=C(c1cn2cc(-c3nc[nH]n3)ccc2n1)N1CCc2ccccc21` [Compound 35, 2-(2,3-Dihydro-1H-indol-1-ylcarbonyl)-6-(1H-1,2,4-triazol-3-yl)imidazo[1,2-α]pyridine] registered an EC50 of 11 nM.

`O=C(c1cn2cc(-c3c[nH]cn3)ccc2n1)N1CCc2ccccc21` [Compound 43, 2-(2,3-Dihydro-1H-indol-1-ylcarbonyl)-6-(1H-imidazol-4-yl)imidazo[1,2-α]pyridine] showed an EC50 of 2.4 nM.
